# Results taken from US9988430B2, “Stable GLP-1 based GLP-1/glucagon receptor co-agonists” (Novo Nordisk A/S, priority 2014, dated 2018).
# *1 amine or outer side, *2 acyl side, *3 side chain or, on linkers, in order; H or OH if unused. Where a SMILES comes first, the peptide text is derived from it. Side-chain parts run from the residue outwards. [ ]: non-standard residue; d: D form. The star is where a group is joined. C18 diacid = O=C(O)CCCCCCCCCCCCCCCCC(=O)*; γGlu = O=C(O)[C@H](CCC(=O)[*:2])N[*:1]; Desaminohistidyl = O=C(CCc1c[nH]cn1)*; AEEA = NCCOCCOCC(=O)O; Aib = CC(C)(N)C(=O)O
# Target: T1, human GLP-1 receptor (Homo sapiens, UniProt P43220)
# T1 construct: expressed in transfected cells; host or cells: membranes of BHK cells, parent line BHKTS13, clone FCW467-12A
# Experiment: Assay (II)(a): GLP-1 receptor binding, [125I]GLP-1 displacement, SPA on BHK membranes
# Conditions: displacement of [125I]GLP-1, membranes with human GLP-1 receptor; read-out: IC50 GLP-1R
# Method in brief: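 Membranes from BHK cells expressing human GLP-1 receptor with WGA SPA beads, [125I]GLP-1(7-36)NH2 (480 pM added solution) and compound in HEPES pH 7.4 buffer with EGTA, MgCl2, Tween 20. Incubated 2 h at 30° C; SPA counts fitted by non-linear regression to IC50 in nM.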
# T1 sequence (P43220 24-463): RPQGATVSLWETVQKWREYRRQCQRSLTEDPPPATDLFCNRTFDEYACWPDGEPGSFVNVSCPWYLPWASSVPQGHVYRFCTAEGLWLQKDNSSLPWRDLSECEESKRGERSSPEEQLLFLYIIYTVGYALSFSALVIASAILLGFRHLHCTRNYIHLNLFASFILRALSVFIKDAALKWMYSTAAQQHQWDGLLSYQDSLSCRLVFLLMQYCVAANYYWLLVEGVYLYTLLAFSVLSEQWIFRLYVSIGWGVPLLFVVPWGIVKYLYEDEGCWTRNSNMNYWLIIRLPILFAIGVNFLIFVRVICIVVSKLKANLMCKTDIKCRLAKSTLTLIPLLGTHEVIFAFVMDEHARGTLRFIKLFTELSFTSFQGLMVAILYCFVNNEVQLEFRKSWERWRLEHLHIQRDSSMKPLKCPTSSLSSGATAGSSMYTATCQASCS
smiles,measurement,value
"CC[C@H](C)[C@H](NC(=O)[C@H](Cc1ccccc1)NC(=O)[C@H](CCC(=O)O)NC(=O)[C@H](CCCNC(=N)N)NC(=O)[C@H](C)NC(=O)[C@H](C)NC(=O)[C@H](CCCNC(=N)N)NC(=O)CNC(=O)[C@H](CCC(=O)O)NC(=O)[C@H](CC(C)C)NC(=O)[C@H](Cc1ccc(O)cc1)NC(=O)[C@H](CCCNC(=N)N)NC(=O)[C@H](CO)NC(=O)[C@@H](NC(=O)[C@H](CC(=O)O)NC(=O)[C@H](CO)NC(=O)[C@@H](NC(=O)[C@H](Cc1ccccc1)NC(=O)[C@@H](NC(=O)CNC(=O)[C@H](Cc1c[nH]cn1)NC(=O)C(C)(C)NC(=O)CCc1c[nH]cn1)[C@@H](C)O)[C@@H](C)O)C(C)C)C(=O)N[C@@H](C)C(=O)N[C@@H](Cc1c[nH]c2ccccc12)C(=O)N[C@@H](CC(C)C)C(=O)N[C@@H](CC(C)C)C(=O)N[C@@H](CCCCNC(=O)CC[C@H](NC(=O)CC[C@H](NC(=O)COCCOCCNC(=O)CC[C@H](NC(=O)CC[C@H](NC(=O)CCCCCCCCCCCCCCCCC(=O)O)C(=O)O)C(=O)O)C(=O)O)C(=O)O)C(=O)NCC(=O)N[C@@H](C)C(=O)NCC(=O)O [Example 35, N^ε34-[(4S)-4-carboxy-4-[[(4S)-4-carboxy-4-[[2-[2-[2-[[(4S)-4-carboxy-4-[[(4S)-4-carboxy-4-(17-carboxyheptadecanoylamino)butanoyl]amino]butanoyl]amino]ethoxy]ethoxy]acetyl]amino]butanoyl]amino]butanoyl]-[Imp7,Aib8,His9,Arg18,Arg23,Arg26,Leu33,Ala36]-GLP-1-(7-37)-peptide] (Desaminohistidyl-[Aib]HGTFTSDVSRYLEGRAAREFIAWLLK([γGlu-γGlu-AEEA-γGlu-γGlu-C18 diacid])GAG-OH)",IC50,1 nM
